12 molecules from US20120077957A1, “Lactam-Bridged Melanocortin Receptor-Specific Peptides” (PALATIN TECHNOLOGIES, INC., priority 2009, published 2012) can be followed below.

Bridge positions count the residues as written; N and C are the ends. Square brackets hold non-standard residues; d marks the D form. Peptide text beside a SMILES is read from it. * marks the point of attachment. Orn = NCCC[C@H](N)C(=O)O; Bn = c1ccc(C*)cc1

Test [1] has as its target T1, human MC4-R (Homo sapiens, UniProt P32245).
T1 construct: expressed in transfected cells; host or cells: HEK293 T-REx (tetracycline-regulated, Invitrogen); cell line from Palatin Technologies with license from the University of Michigan
Description: Competitive inhibition binding assay with [I125]-NDP-α-MSH or Eu-NDP-α-MSH, membranes of HEK-293 cells expressing recombinant hMC4-R. As to conditions: human MC4-R; averages of all comparable assays; read-out: Ki. As for the experimental part: A competitive inhibition binding assay was performed using membrane homogenates prepared from HEK-293 cells that express recombinant hMC4-R, hMC3-R, or hMC5-R, and from B-16 mouse melanoma cells (containing endogenous MC1-R). In some instances, HEK-293 cells that express recombinant hMC1-R were employed. In the examples that follow, all MC3-R, MC4-R and MC5-R values are for human recombinant receptors. […] After incubation for 60 minutes at 37° C., the assay mixture was filtered and the membranes washed three times with ice-cold buffer. Filters were dried and counted in a gamma counter for bound radioactivity. […] Maximal specific binding (100%) was defined as the difference in radioactivity (cpm) bound to cell membranes in the absence and presence of 1 μM NDP-α-MSH. […] Ki values for test peptides of the present invention were determined using Graph-Pad Prism® curve-fitting software.
Alternatively, a competitive inhibition binding assay was performed employing Eu-NDP-α-MSH (PerkinElmer Life Sciences catalog No. AD0225) with determination by time-resolved fluorometry (TRF) of the lanthanide chelate. […] After incubation for 90 minutes at 37° C., the reaction was stopped by filtration over AcroWell 96-well filter plates (Pall Life Sciences). The filter plates were washed 4 times with 200 μL of ice-cold phosphate-buffered saline. DELFIA Enhancement solution (PerkinElmer Life Sciences) was added to each well. […] Each assay was conducted in duplicate and mean values were utilized. Ki values were determined by curve-fitting with Graph-Pad Prism® software using a one-site fixed-slope competition binding model.

Test [2] concerns the target T1, human MC4-R. Description: cAMP functional assay in HEK-293 T-REx cells expressing human MC4-R, induced with doxycycline 0.1 ng/mL (low density). The test is classed as cell-based. The conditions noted are these: doxycycline 0.1 ng/mL, averages of all comparable assays; for Emax: HEK293-T-REx, maximal cAMP stimulation, NDP-α-MSH = 100%, read-out: Emax; for EC50: human MC4-R cAMP assay, read-out: Ec50.

T1 sequence (P32245 whole entry): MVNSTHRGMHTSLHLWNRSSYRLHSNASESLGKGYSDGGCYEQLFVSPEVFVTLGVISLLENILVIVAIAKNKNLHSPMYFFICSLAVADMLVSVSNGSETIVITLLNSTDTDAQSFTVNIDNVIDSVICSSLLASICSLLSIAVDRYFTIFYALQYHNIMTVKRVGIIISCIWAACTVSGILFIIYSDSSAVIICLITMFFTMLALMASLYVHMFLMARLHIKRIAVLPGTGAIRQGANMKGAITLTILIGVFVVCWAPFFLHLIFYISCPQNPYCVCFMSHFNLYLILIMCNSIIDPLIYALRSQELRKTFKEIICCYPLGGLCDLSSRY

In general, Ki refers to a dissociation constant, usually derived from enzyme kinetics or from competition with a known ligand. The term Emax denotes the maximal effect, on the per cent scale that the assay sets. The EC50 is the concentration that produces a half-maximal response. Turning to `CC(=O)N[C@@H](CCCNC(=N)N)C(=O)N[C@H]1CCCNC(=O)CC[C@@H](C(=O)O)NC(=O)[C@H](Cc2c[nH]c3ccccc23)NC(=O)[C@H](CCCNC(=N)N)NC(=O)[C@@H](Cc2ccccc2)NC(=O)[C@H](COCc2ccccc2)NC1=O` [No. 48, Ac-Arg-cyclo(Orn-Ser(Bzl)-D-Phe-Arg-Trp-Glu)-OH] (Ac-R[Orn]S(Bn)[dF]RWE-OH; lactam 2-7), the Ki in test [1] stood at 5 nM. Also, in test [2], the Emax turned out to be 50% and the EC50 was 3 nM.
Take `CC(=O)N[C@@H](CCCNC(=N)N)C(=O)N[C@H]1CC(=O)NCCCC[C@@H](C(N)=O)NC(=O)[C@H](Cc2c[nH]c3ccccc23)NC(=O)[C@H](CCCNC(=N)N)NC(=O)[C@@H](Cc2ccccc2)NC(=O)[C@H](CCCN)NC1=O` [reference compound]: the Ki in test [1] was found to be 7 nM. Also, in test [2], the Emax came to 79%.
In the case of `CC(=O)N[C@@H](CCCNC(=N)N)C(=O)N[C@H]1CCC(=O)NCCC[C@@H](C(N)=O)NC(=O)[C@H](Cc2c[nH]c3ccccc23)NC(=O)[C@H](CCCNC(=N)N)NC(=O)[C@@H](Cc2ccccc2)NC(=O)[C@H](CCCN)NC1=O` [No. 8, Ac-Arg-cyclo(GIu-Orn-D-Phe-Arg-Trp-Orn)-NH2], in test [1], the Ki was 9 nM. Also, in test [2], the Emax was 95% and the EC50 is 0.4 nM.
The matching figures for `CC(=O)N[C@@H](CCCNC(=N)N)C(=O)N[C@H]1CCC(=O)NCCC[C@@H](C(N)=O)NC(=O)[C@H](Cc2c[nH]c3ccccc23)NC(=O)[C@H](CCCNC(=N)N)NC(=O)[C@@H](Cc2ccccc2)NC(=O)[C@H](CCC(N)=O)NC1=O` [No. 12, Ac-Arg-cyclo(Glu-Gln-D-Phe-Arg-Trp-Orn)-NH2]: 3 nM, 96% and 6 nM.
The matching figures for `CC(=O)N[C@@H](CCCNC(=N)N)C(=O)N[C@H]1CCCNC(=O)CC[C@@H](C(N)=O)NC(=O)[C@H](Cc2c[nH]c3ccccc23)NC(=O)[C@H](CCCNC(=N)N)NC(=O)[C@@H](Cc2ccccc2)NC(=O)[C@H](Cc2c[nH]cn2)NC1=O` [No. 38, Ac-Arg-cyclo(Orn-His-D-Phe-Arg-Trp-Glu)-NH2] (Ac-R[Orn]H[dF]RWE-NH2; lactam 2-7): 1 nM, 84% and 1 nM.
As to `CC(=O)N[C@@H](CCCNC(=N)N)C(=O)N[C@H]1CCC(=O)NCCC[C@@H](C(N)=O)NC(=O)[C@H](Cc2c[nH]c3ccccc23)NC(=O)[C@H](CCCNC(=N)N)NC(=O)[C@@H](Cc2ccccc2)NC(=O)[C@H](CC(N)=O)NC1=O` [No. 34, Ac-Arg-cyclo(Glu-Asn-D-Phe-Arg-Trp-Orn)-NH2], in test [1], the inhibition constant Ki turned out to be 6 nM. Moreover, in test [2], the EC50 amounted to 0.4 nM.
As to `CC(=O)N[C@@H](CCCNC(=N)N)C(=O)N[C@H]1CCC(=O)NCCC[C@@H](C(N)=O)NC(=O)[C@H](Cc2c[nH]c3ccccc23)NC(=O)[C@H](CCCNC(=N)N)NC(=O)[C@@H](Cc2ccccc2)NC(=O)[C@H](Cc2c[nH]cn2)NC1=O` [No. 4, Ac-Arg-cyclo(Glu-His-D-Phe-Arg-Trp-Orn)-NH2] (Ac-REH[dF]RW[Orn]-NH2; lactam 2-7), in test [1], the Ki was found to be 1 nM. In test [2], the Emax came to 83% and the EC50 was 0.2 nM.
The like results for `CCCC[C@H](NC(C)=O)C(=O)N[C@H]1CCC(=O)NCCC[C@@H](C(N)=O)NC(=O)[C@H](Cc2c[nH]c3ccccc23)NC(=O)[C@H](CCCNC(=N)N)NC(=O)[C@@H](Cc2ccccc2)NC(=O)[C@H](Cc2c[nH]cn2)NC1=O` [No. 2, Ac-Nle-cyclo(Glu-His-D-Phe-Arg-Trp-Orn)-NH2] were, in that order, 0.1 nM, 93% and 0.1 nM.
With `CC(=O)N[C@@H](CCCNC(=N)N)C(=O)N[C@H]1CCC(=O)NCCC[C@@H](C(N)=O)NC(=O)[C@H](Cc2c[nH]c3ccccc23)NC(=O)[C@H](CCCNC(=N)N)NC(=O)[C@@H](Cc2ccccc2)NC(=O)[C@H](CCS(C)(=O)=O)NC1=O` [No. 13, Ac-Arg-cyclo(Glu-Met(O2)-D-Phe-Arg-Trp-Orn)-NH2], the Ki in test [1] amounted to 8 nM. For the same molecule, in test [2], the Emax amounted to 71% and the EC50 was found to be 5 nM.
The matching figures for `CC(=O)N[C@@H](CCCNC(=N)N)C(=O)N[C@H]1CC(=O)NCCCC[C@@H](C(N)=O)NC(=O)[C@H](Cc2c[nH]c3ccccc23)NC(=O)[C@H](CCCNC(=N)N)NC(=O)[C@@H](Cc2ccccc2)NC(=O)[C@@H]2C[C@@H](N)CN2C1=O` [reference compound]: 5 nM, 61% and 8 nM.
The matching figures for `CC(=O)N[C@@H](CCCNC(=N)N)C(=O)N[C@H]1CCCNC(=O)CC[C@@H](C(=O)O)NC(=O)[C@H](Cc2c[nH]c3ccccc23)NC(=O)[C@H](CCCNC(=N)N)NC(=O)[C@@H](Cc2ccccc2)NC(=O)[C@H](Cc2c[nH]cn2)NC1=O` [No. 37, Ac-Arg-cyclo(Orn-His-D-Phe-Arg-Trp-Glu)-OH] (Ac-R[Orn]H[dF]RWE-OH; lactam 2-7): 12 nM, 88% and 0.6 nM.
For the molecule `CC(=O)N[C@@H](CCCNC(=N)N)C(=O)N[C@H]1CC(=O)NCCCC[C@@H](C(N)=O)NC(=O)[C@H](Cc2c[nH]c3ccccc23)NC(=O)[C@H](CCCNC(=N)N)NC(=O)[C@@H](Cc2ccccc2)NC(=O)[C@H](CCS(C)(=O)=O)NC1=O` [reference compound], the Ki in test [1] was found to be 7 nM. For the same molecule, in test [2], the Emax came to 29%.
